Experimental data taken from PubChem BioAssay (NCI).
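Each compound was tested at five concentrations against cells in 96-well plates for 48 hours. GI50 is the concentration that inhibits growth by half. TGI marks complete inhibition of growth.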

Experiments:
Assay in all cases: NCI tumour cell line growth inhibition, 48 h
EKVX NSCLC = system: EKVX NSCLC
HT29 colon = system: HT29 colon
HOP-92 NSCLC = system: HOP-92 NSCLC
MALME-3M melanoma = system: MALME-3M melanoma
OVCAR-5 ovarian = system: OVCAR-5 ovarian
CCRF-CEM leukemia = system: CCRF-CEM leukemia
UO-31 renal = system: UO-31 renal
HCT-116 colon = system: HCT-116 colon
SW-620 colon = system: SW-620 colon
SR leukemia = system: SR leukemia

Structure (SMILES)	GI50 (EKVX NSCLC)	TGI (EKVX NSCLC)	GI50 (HT29 colon)	TGI (HT29 colon)	GI50 (HOP-92 NSCLC)	TGI (HOP-92 NSCLC)	GI50 (MALME-3M melanoma)	TGI (MALME-3M melanoma)	GI50 (OVCAR-5 ovarian)	TGI (OVCAR-5 ovarian)	GI50 (CCRF-CEM leukemia)	TGI (CCRF-CEM leukemia)	GI50 (UO-31 renal)	TGI (UO-31 renal)	GI50 (HCT-116 colon)	TGI (HCT-116 colon)	GI50 (SW-620 colon)	TGI (SW-620 colon)	TGI (SR leukemia)
OCCC#Cc1ccccc1C#Cc1ccccc1	11.3 µM	24.3 µM	18 µM	> 100 µM	3.48 µM	16.7 µM	14 µM	27.1 µM	16.9 µM	50.7 µM	25.9 µM	> 100 µM	34.3 µM	> 100 µM	17.5 µM	33.6 µM	13.4 µM	28.2 µM	–
CCOC(=O)C12CN(C34CC5CC(CC(C5)C3)C4)CC(C(=O)OCC)(C1=O)C(c1ccccc1)OC2c1ccccc1 (stereo not given)	–	> 100 µM	–	> 100 µM	–	9.73 µM	–	> 100 µM	–	> 100 µM	–	> 100 µM	–	> 100 µM	–	–	–	> 100 µM	–
N/C(=N\N=C=C1C(=O)Nc2ccc(F)cc21)NO	–	> 100 µM	–	> 100 µM	–	> 100 µM	–	> 100 µM	–	–	–	> 100 µM	–	–	–	> 100 µM	–	> 100 µM	> 100 µM
Nc1cc2c3c(cccc3c1)C(=O)N(CCN1CCN(CCN3C(=O)c4cccc5cc(N)cc(c45)C3=O)CC1)C2=O	–	> 100 µM	–	> 100 µM	–	> 100 µM	–	> 100 µM	–	> 100 µM	–	> 100 µM	–	> 100 µM	–	> 100 µM	–	> 100 µM	–
CCCCCNC(=O)C1C(=O)N(CCCCC)C(=O)/C1=N\N (stereo not given)	–	> 100 µM	–	> 100 µM	–	95.4 µM	–	> 100 µM	–	> 100 µM	–	> 100 µM	–	81.8 µM	–	–	–	> 100 µM	–
CC1(C)OCC(C2OC(On3nnc4ccc(Cl)cc43)C3OC(C)(C)OC23)O1 (stereo not given)	–	> 100 µM	–	> 100 µM	–	> 100 µM	–	> 100 µM	–	> 100 µM	–	> 100 µM	–	–	–	> 100 µM	–	> 100 µM	> 100 µM
COC12c3ccccc3-c3ccccc3C1[C@@H](C(=O)O)[C@H]2C(=O)O (stereo not given in full)	–	> 10 µM	–	> 10 µM	–	> 10 µM	–	> 10 µM	–	> 10 µM	–	> 10 µM	–	> 10 µM	–	–	–	> 10 µM	> 10 µM
O=C1c2cccnc2-c2nc(-c3ccccc3)cc3c2c1nc1ccccc13	5.1 µM	18.1 µM	2.59 µM	7.16 µM	20.3 µM	80.4 µM	3.38 µM	16.1 µM	16.2 µM	30.8 µM	2.98 µM	29.7 µM	3.8 µM	11.2 µM	1.91 µM	7.2 µM	2.56 µM	> 35.2 µM	–
Nc1ncn([C@@H]2C=C(CO)C(O)C2O)c(=O)n1 (stereo not given in full)	–	> 100 µM	–	> 100 µM	–	> 100 µM	–	> 100 µM	–	> 100 µM	–	> 100 µM	–	> 100 µM	–	> 100 µM	–	> 100 µM	–
CCOc1ccc(NC(=O)/C(=C/c2ccccc2)C(C)=O)cc1	–	35.4 µM	–	33.3 µM	–	28 µM	–	31.6 µM	–	36.5 µM	–	10.5 µM	–	21.6 µM	–	17.5 µM	–	33.2 µM	–
